Measurements from patent publication US20100087496A1, “NOVEL CINNAMIC AMIDE DERIVATIVES USEFUL AS ION CHANNEL MODULATORS” (NeuroSearch A/S, priority 2006, published 2010).
One block for each compound: values may come before it.

Biological target: T1, BK channels heterologously expressed in Xenopus laevis oocytes (Homo sapiens, UniProt Q12791)
T1 construct: expressed in transfected cells; host or cells: Xenopus laevis oocytes
Assay: BK channel opening activity, two-electrode voltage clamp in Xenopus laevis oocytes
Type: cell-based
Details: step from −40 mV to +30 mV
Method: In this example the BK channel opening activity of three cinnamic amide derivatives representative of the invention, i.e. Compound 22 (A), Compound 9 (B) and Compound 19 (C), is determined using BK channels heterologously expressed in Xenopus laevis oocytes.
The electrical current through the BK channel is measured conventional two-electrode voltage clamp. BK current is activated by repeated step protocols. In brief, this protocol goes from a resting membrane potential of −40 mV lasting for 5 seconds to a depolarised step to +30 mV lasting for 1 second. The protocol was repeated continuously.
Having reached a stable current level, Compound A (3 μM), Compound B (1 μM) and Compound C (30 μM) was added.

T1 sequence (Q12791 whole entry): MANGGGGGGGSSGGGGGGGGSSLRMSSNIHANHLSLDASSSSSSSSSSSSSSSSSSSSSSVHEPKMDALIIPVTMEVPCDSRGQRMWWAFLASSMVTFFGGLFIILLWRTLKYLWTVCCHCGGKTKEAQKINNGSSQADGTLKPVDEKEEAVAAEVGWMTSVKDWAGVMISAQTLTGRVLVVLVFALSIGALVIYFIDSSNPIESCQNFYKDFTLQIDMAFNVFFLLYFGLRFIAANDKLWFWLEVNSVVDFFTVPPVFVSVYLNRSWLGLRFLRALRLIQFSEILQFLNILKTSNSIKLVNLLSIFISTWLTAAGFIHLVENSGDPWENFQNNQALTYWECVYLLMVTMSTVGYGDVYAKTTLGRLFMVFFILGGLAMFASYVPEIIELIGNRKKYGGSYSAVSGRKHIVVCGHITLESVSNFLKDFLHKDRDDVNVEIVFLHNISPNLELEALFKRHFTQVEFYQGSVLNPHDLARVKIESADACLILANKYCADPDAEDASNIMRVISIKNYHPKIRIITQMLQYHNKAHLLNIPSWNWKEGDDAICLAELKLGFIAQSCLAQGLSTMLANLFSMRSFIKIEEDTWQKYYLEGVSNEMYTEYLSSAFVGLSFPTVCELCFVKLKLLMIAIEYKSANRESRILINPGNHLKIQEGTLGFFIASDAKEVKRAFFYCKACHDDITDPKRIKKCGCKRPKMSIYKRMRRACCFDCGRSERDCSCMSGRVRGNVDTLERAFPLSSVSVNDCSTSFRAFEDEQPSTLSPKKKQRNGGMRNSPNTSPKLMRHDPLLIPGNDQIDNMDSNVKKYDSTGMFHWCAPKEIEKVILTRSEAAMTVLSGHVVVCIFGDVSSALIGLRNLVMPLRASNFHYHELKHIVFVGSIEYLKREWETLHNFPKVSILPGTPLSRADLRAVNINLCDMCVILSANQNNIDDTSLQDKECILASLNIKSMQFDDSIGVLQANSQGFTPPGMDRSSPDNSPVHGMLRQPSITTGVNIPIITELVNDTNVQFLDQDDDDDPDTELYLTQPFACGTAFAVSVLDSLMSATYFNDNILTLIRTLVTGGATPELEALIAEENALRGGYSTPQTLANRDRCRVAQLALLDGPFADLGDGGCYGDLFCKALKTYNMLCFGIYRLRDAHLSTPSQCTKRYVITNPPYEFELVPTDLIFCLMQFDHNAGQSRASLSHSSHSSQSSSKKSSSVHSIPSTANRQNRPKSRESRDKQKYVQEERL

Compound: O=C(/C=C/c1ccc2ccccc2c1)Nc1cc(Cl)ccc1-c1nnn[nH]1 [Compound 9, (E)-N-[5-Chloro-2-(1H-tetrazol-5-yl)-3-phenyl]-3-naphthalen-2-yl-acrylamide]
current activated by depolarisation (BK current) (1 μM): marked increase

current activated by depolarisation (BK current) (30 μM): marked increase
Compound: O=C(/C=C/c1ccc2ccccc2c1)Nc1cc(Cl)ccc1S(=O)(=O)O [Compound 19, 4-Chloro-2-((E)-3-naphthalen-2-yl-acryloylamino)-benzenesulfonic acid]

current activated by depolarisation (BK current) (3 μM): marked increase
Compound: O=C(Nc1cc(Cl)ccc1-c1nnn[nH]1)C1=Cc2cc(Cl)ccc2OC1 [Compound 22, 6-Chloro-2H-chromene-3-carboxylic acid [5-chloro-2-(1H-tetrazol-5-yl)-phenyl]-amide]
